Experimental data: PubChem BioAssay AID743417 (Broad Institute, 2014)
Inconclusive results are not listed. Activity calls are given as the source filed them.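 Rule for the calls: active = compounds lowering the luciferase signal with a fitted half-maximal dose at most twice their top valid dose (cut at about 30 µM in these data); inconclusive = flat fits with moderate signal loss, or poor fits; inactive = the rest.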

System: Clone20 osteoblast Shn3 3'UTR firefly luciferase, 24 h
Assay: Shn3 3'UTR reporter inhibitors, dose response, cell-based, Clone20 osteoblasts, luminescence, dry powder, set 2 (AID 743417)

| Structure (SMILES) | AC50 |
| --- | --- |
| CC(C)(C)OC(=O)NCc1ccc(CNC(=O)c2nc[nH]c2C(=O)NCc2ccc(CNC(=O)OC(C)(C)C)cc2)cc1 | 5890 nM |
| CCOC(=O)C1CCN(S(=O)(=O)c2c(Cl)ccc3nonc23)CC1 | 919 nM |
| CC1(C)CC[C@]2(C(=O)n3ccnc3)CC[C@]3(C)[C@H](C(=O)C=C4[C@@]5(C)C=C(C#N)C(=O)C(C)(C)[C@@H]5CC[C@]43C)[C@@H]2C1 | < 260 nM |
| COc1ccc(C(=O)NC2CCCc3c2cnn3-c2cccc(C)c2C)c(OC)n1 (centres undefined) | 1960 nM |
| C=CCC[C@H](Cc1ccc(F)cc1)C(=O)OC[C@H](Cc1c[nH]c2ccccc12)NC(=O)[C@H](CC=C)CC(=O)N(CCO)Cc1ccccc1 | 11700 nM |
| Cc1cccc(CS(=O)(=O)c2ncc(Cl)c(C(=O)NCc3ccccc3)n2)c1 | 2940 nM |
| NC(=O)c1cc(N2C(=O)C=CC2=O)ccc1Cl | 11300 nM |
| Cc1cc(C)nc(SCC(=O)Nc2ccnc3ccccc23)n1 | 462 nM |
| O=C(Nc1cccc(-c2ccc(N3CCCCC3)nn2)c1)C(F)(F)F | 9070 nM |
| COc1cccc(OCCn2cc(C(C)=O)c3ccccc32)c1 | 1850 nM |
| O=C(NNC(=O)C1CCN(S(=O)(=O)c2ccc(Cl)cc2)CC1)c1ccccc1O | 18500 nM |
| Cc1cccc(CSc2cccc3cccnc23)c1 | 2540 nM |
| Oc1c(CN2CCN(c3ccccc3)CC2)cc(Br)c2cccnc12 | 1920 nM |
| Cc1nn(Cc2noc(C(=O)NC3CCC(C)CC3)n2)c(C)c1Br (centres undefined) | 3280 nM |
| O=C(Nc1ccc(N2CCN(C(=O)c3ccc(Cl)cc3)CC2)cc1)c1ccc2c(c1)OCCO2 | 2540 nM |
| Cc1ccc2nc(-c3ccc(O)c(O)c3)cn2c1 | 4200 nM |
| c1ccc(Nc2nc(NCC3CCCO3)c3ccccc3n2)cc1 (centres undefined) | 21700 nM |
| CC(=O)N1CCN(C(=O)CCc2cc(C(C)(C)C)c(O)c(C(C)(C)C)c2)CC1 | 4460 nM |
| CC(C)(C)c1ccc(-n2ncc3c2CCCC3NC(=O)C2(C(N)=O)CC2)cc1 (centres undefined) | 589 nM |
| OC1(c2cccc(C(F)(F)F)c2)CCN(c2ncnc3c2[nH]c2ccc(F)cc23)CC1 | 1870 nM |
| COc1ccc(CNc2ncnc3ccccc23)cc1 | 674 nM |
| CCCCCCCCCCOC(=O)Cn1c(COc2ccc(OC)cc2)[n+](C)c2ccccc21 | 2010 nM |
| CS(=O)(=O)c1ccc(C(=O)OCC(=O)NCc2cccs2)cc1[N+](=O)[O-] | 2070 nM |
| CCCSc1nnc(CSc2nc3ccccc3s2)n1-c1ccccc1 | 7050 nM |
| Cc1ccc(S(=O)(=O)Nc2cccc3ncccc23)s1 | 3850 nM |
| N=c1n(Cc2ccccc2)c2ccccc2n1CC(O)COc1ccc(Cl)cc1Cl (centres undefined) | 2890 nM |

| Structure (SMILES) | AC50 |
| --- | --- |
| CS(=O)(=O)c1ncc(Cl)c(C(=O)Nc2ccc(OC(F)F)cc2)n1 | 682 nM |
| CC(C)CCNc1nc(N)c([N+](=O)[O-])c(N2CCCCCC2)n1 | 8790 nM |
| COc1ccc(C(=O)NC(=S)NNC(=O)c2ccc3ccccc3n2)cc1 | 4320 nM |
| C=C1C(=O)[C@@]23[C@H](O)C[C@@H]4C(C)(C)CC[C@H](O)[C@]4(C)[C@@H]2C[C@H](O)[C@@H]1[C@H]3O | 2950 nM |
| CC1Cc2cc(S(=O)(=O)N3CCN(c4ccc(Cl)cc4)CC3)ccc2N1C(=O)C1CC1 (centres undefined) | 4260 nM |
| C=CCn1c(C)cc(C(=O)CN2C(=O)c3ccccc3S2(=O)=O)c1C | 974 nM |
| CSc1nc(N)nc2c1ncn2CC(=O)N1CCN(Cc2c(C)cc(C)cc2C)CC1 | 526 nM |
| CC1=NNC(=O)/C1=C\c1cn(-c2ccccc2)nc1-c1ccccc1 | 8420 nM |
| Cc1ccc(S(=O)(=O)Nc2ccc3ncccc3c2)cc1 | 2200 nM |
| O=S(=O)(c1ccc(Cl)cc1)N1CCN(c2ncnc3sccc23)CC1 | 3040 nM |
| COc1ccccc1NC(=O)Cn1c(C)cc(=O)c2cccc(OC)c21 | 3160 nM |
| O=C(Nc1ccccc1)Nc1cc(OCC(F)(F)F)cc(OCC(F)(F)F)c1 | 6400 nM |
| CC1CC(C)CC(C)C(O)C(C#N)=CC=CCC(C2CCCC2C(=O)O)OC(=O)CC(O)C(C)C1 (centres undefined) | < 260 nM |
| CCN(CC)CCN1C(=O)/C(=C\c2ccc(Cl)c([N+](=O)[O-])c2)SC1=Nc1ccc(OC)cc1 | 2110 nM |
| CCOc1cc(CNCc2ccccc2)ccc1OCc1ccc(Cl)cc1 | 6690 nM |
| CCOc1ccc(N2C(=O)CC(Sc3nnnn3-c3ccccc3)C2=O)cc1 (centres undefined) | 11500 nM |
| O=C(Cn1cnc2ccccc21)Nc1cccc(S(=O)(=O)N2CCCC2)c1 | 2770 nM |
| COc1cc(NC(=O)COc2cc(O)c3c(c2)OC(C)(C)CC3=O)cc(OC)c1OC | 354 nM |
| Cc1cccc(-n2ncc(Cl)c(Cl)c2=O)c1 | 5800 nM |
| C#CCN(C[C@@H]1[C@@H](OC(=O)NC2CCCC2)[C@@H](OC(=O)NC2CCCC2)Cn2c(=O)ccc(=O)n21)S(=O)(=O)c1ccc(C)cc1 | 12900 nM |
| CC(C)(C)C(=O)N1CCN(c2ccc(NC(=O)c3ccc([N+](=O)[O-])o3)cc2)CC1 | 2450 nM |
| CCCC(=O)N1CCN(c2ccc(NC(=O)c3ccc([N+](=O)[O-])o3)cc2Cl)CC1 | 700 nM |
| Cc1cc(NC(c2ccc(Cl)cc2)c2ccc3cccnc3c2O)no1 (centres undefined) | 1050 nM |
| Cc1cc(CN2CCOCC2)c(O)c(C2(C)CCCCC2)c1 | 32300 nM |
| O=C(Cn1cc(C(=O)C2CC2)c2ccccc21)Nc1ccccc1Cl | 3420 nM |
| CCN(CC)S(=O)(=O)c1ccc(N(C)Cc2ccc(C(F)(F)F)cc2)nc1 | 5850 nM |

| Structure (SMILES) | AC50 |
| --- | --- |
| O=C(O)C1(Nc2ccccc2Cl)CCCC1 | 29500 nM |
| CSc1nnc(NC(=O)c2nc(S(=O)(=O)Cc3cccc(C)c3)ncc2Cl)s1 | 4030 nM |
| CCCc1nc2ccc(Br)cc2c(=O)n1-c1ccc([N+](=O)[O-])c(C(F)(F)F)c1 | 15700 nM |
| CCN(CC)S(=O)(=O)c1ccc(NC(=O)Nc2cccc(C(F)(F)F)c2)cc1 | 5600 nM |
| CC(=O)c1ccc(N2CCN(S(=O)(=O)c3ccc(-c4cnc(C5CC5)o4)cc3)CC2)cc1 | 5950 nM |
| FC(F)(F)c1nnc(-c2ccccc2)nc1Sc1ccc(Cl)cc1 | 14700 nM |
| CCOC(=O)c1c(NC(=O)C2c3ccccc3Oc3ccccc32)sc(C(C)=O)c1C | 4670 nM |
| CCN(CC)CC(C)(C)C(=O)/C=C/c1ccc(/C=C/C(=O)C(C)(C)CN(CC)CC)cc1 | 468 nM |
| CCSc1nc2ccccc2n1C(=O)/C=C/c1ccc(OC)c(OC)c1 | 962 nM |
| CC(=O)N1c2ccc(S(=O)(=O)N3CCC(C(=O)N4CCN(c5ccccc5F)CC4)CC3)cc2CC1C (centres undefined) | 5410 nM |
| CCCCN1CC(COCc2ccccc2)Oc2cccc(Oc3ccc(C(C)C)cc3)c2S1(=O)=O (centres undefined) | 5030 nM |
| COc1ccc(OCc2cccc(C(=O)O)c2)cc1 | 1390 nM |
| Cc1ccc(N2C(=O)c3cccc4c([N+](=O)[O-])ccc(c34)C2=O)c2cccnc12 | 5680 nM |
| CC(C)(C)n1ncc2c(=O)n(Cc3cccc(Cn4cnc5c(cnn5C(C)(C)C)c4=O)c3F)cnc21 | 1090 nM |
| O=C(Nc1nc(-c2ccccc2)cs1)C1CCCCN1S(=O)(=O)c1ccccc1 (centres undefined) | 5140 nM |
| CC(C)(C)c1ccc(CN(Cc2ccccc2)C(c2ccccn2)c2nnnn2C(C)(C)C)cc1 (centres undefined) | 13500 nM |
| C#CC(=O)N(c1ccc(OC)cc1OC)C(C(=O)NC1CCCC1)c1cccs1 (centres undefined) | 7120 nM |
| COc1ccc(CC(=O)Nc2ccncc2Cl)cc1 | 2120 nM |
| O=C(NCc1cccc(Cl)c1)c1cc(COc2ccc3ncccc3c2)on1 | 3050 nM |
| Cc1ccc(C(=O)Nc2cnc3ccccc3c2)cc1 | 4040 nM |
| Cc1nc(N2CCN(C(=O)c3ccco3)CC2)c2c3c(sc2n1)CC(C)CC3 (centres undefined) | 2330 nM |
| N#CC(c1ccc(Cl)cc1)c1ccc2c(C(F)(F)F)cc(C(F)(F)F)nc2n1 (centres undefined) | 487 nM |
| C=C1C(=O)OC2C=C(CO)C3OC3C3OC3(C)CC(OC(=O)/C(=C/C)COC(C)=O)C12 (centres undefined) | 5890 nM |
| Cc1cccc(CS(=O)(=O)c2ncc(Cl)c(C(=O)Nc3ccc(F)cc3)n2)c1 | 550 nM |
| CN(C)c1ncnc2c1C(c1ccccc1)C(C)(C)O2 (centres undefined) | > 70000 nM (inactive) |
| CC1=C(C(=O)OC2CCCCC2)C(c2cccnc2)n2nnnc2N1 (centres undefined) | 3230 nM |

| Structure (SMILES) | AC50 |
| --- | --- |
| Cn1c(=O)[nH]c(=O)c2c1nc([N+](=O)[O-])n2Cc1ccccc1 | 1900 nM |
| COc1ccc(CN(C)c2ccc(S(=O)(=O)N3CCN(C)CC3)cc2[N+](=O)[O-])cc1OC | 691 nM |
| Cc1nn(-c2ccccc2)c(C)c1C(=O)OC(C)C(=O)NC1CCCCC1 (centres undefined) | 8190 nM |
| CCC1CCCCN1C(=O)c1cc(COc2ccc3ncccc3c2)on1 (centres undefined) | 460 nM |
| CN(C)c1ccc(/C=C/c2ccc3c4ccccc4ccc3[n+]2-c2ccccc2)cc1 | < 260 nM |
| CCN(CC)S(=O)(=O)c1cc(NC(=O)C2CCN(c3ncnc4sc(C)c(C)c34)CC2)ccc1Cl | 5080 nM |
| CC(=O)N1CCc2c(sc(NC(=O)c3ccc([N+](=O)[O-])o3)c2C(N)=O)C1 | 1850 nM |
| COc1ccc(-c2nsc3c(N4CCCCC4C)ncnc23)cc1 (centres undefined) | < 260 nM |
| Cc1cc(C)c(CN2CCN(C(=O)Cn3cnc4c(NCc5ccccc5)ncnc43)CC2)c(C)c1 | 417 nM |
| COc1ccccc1/C=C/CN1CCC(n2nccc2NC(=O)CCc2ccccc2)CC1 | 1910 nM |
| CCCCC(=O)NC(c1ccc(OC)cc1)c1ccc2cccnc2c1O (centres undefined) | 2280 nM |
| Cc1ccc(-c2nn(C(C)(C)C)c3ncnc(N)c23)cc1 | 5890 nM |
| Cc1ccc(C)c(NC(=O)CN(C)C(=O)c2cccc(S(=O)(=O)N3CCN(Cc4ccccc4)CC3)c2)c1 | 3500 nM |
| O=[N+]([O-])c1c(NCCCO)cc(Sc2nc3ccccc3s2)c2nonc12 | 1580 nM |
| O=C(Nc1nc(-c2ccccn2)cs1)c1ccc(F)c(S(=O)(=O)N2CCOCC2)c1 | 1320 nM |
| CCC(C)[C@H]1CNC(=S)N1CCc1cc(C(F)(F)F)cc(C(F)(F)F)c1 (some centres undefined) | 21600 nM |
| Cc1cc(NNC(=O)c2cccc(C(F)(F)F)c2)nc2c1c(C)nn2C | 2430 nM |
| COC(=O)C[C@]1(C(=O)OC)CN(C#N)N(c2ccc(Cl)cc2)C12c1ccccc1-c1ccccc12 | 1880 nM |
| Cc1cc(C(=O)NC2CCCc3c2cnn3-c2ccc(C)c(C)c2)n(C)n1 (centres undefined) | < 260 nM |
| O=C(NNC(=S)Nc1ccc(Cl)c(Cl)c1)c1ccccn1 | 2330 nM |
| CC[C@H](C)C(=O)O[C@H]1C[C@@H](C)C=C2C=C[C@H](C)[C@H](CC[C@@H]3C[C@@H](O)CC(=O)O3)[C@H]21 | 1620 nM |
| CC(C)c1ccc(NC(=O)Nc2nc(C(N)CCc3ccccc3)cs2)cc1 (centres undefined) | 5360 nM |
| CCN(CC)S(=O)(=O)c1ccc(C)c(NC(=S)N2CCN(C/C=C/c3ccccc3)CC2)c1 | 2550 nM |
| Cn1c(COc2ccc(Br)cc2)nnc1SC1CCc2ccccc2C1=O (centres undefined) | 35200 nM |
| Cc1nc(NC(C)c2ccccc2)c2oc3ccccc3c2n1 (centres undefined) | 3060 nM |
| S=C(NCCc1ccccc1)Nc1cccc2cnccc12 | 922 nM |
